In PubChem BioAssay AID256 (DTP/NCI, 2004):
Where “and” joins values, the source holds several entries; their conditions need not be identical. Identical values can stand only once. Inconclusive results and toxic doses are left out. The calls were made as follows: active = survival T/C of 150% or more; inactive = T/C below 125% in these data.

Tested on: CD2F1 mice, L1210 leukemia ip, survival T/C
Experiment: NCI In Vivo Anticancer Drug Screen. Data for tumor model L1210 Leukemia (intraperitoneal) in CD2F1 (CDF1) mice
Conditions: endpoint: mean survival time, higher = longer survival
Procedure, shortened: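 Compound-dosed mice with transplantable tumor versus matched vehicle controls; endpoint ratio T/C reported.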

[1] = dose: 100.0 mg/kg/injection, schedule: Q04DX003 (ip), vehicle: saline with Tween-80
[2] = dose: 200.0 mg/kg/injection, schedule: Q04DX003 (ip), vehicle: saline with Tween-80
[3] = dose: 400.0 mg/kg/injection, schedule: Q04DX003 (ip), vehicle: saline with Tween-80
[4] = dose: 50.0 mg/kg/injection, schedule: Q01DX009 (ip), vehicle: saline with Tween-80
[5] = dose: 100.0 mg/kg/injection, schedule: Q01DX009 (ip), vehicle: saline with Tween-80
[6] = dose: 100.0 mg/kg/injection, schedule: Q04DX002 (ip), vehicle: saline with Tween-80
[7] = dose: 200.0 mg/kg/injection, schedule: Q04DX002 (ip), vehicle: saline with Tween-80
[8] = dose: 400.0 mg/kg/injection, schedule: Q04DX002 (ip), vehicle: saline with Tween-80

Measured: T/C

CCCCOc1c(OCCCC)c(=O)c1=O
inactive: dose: 100.0 mg/kg/injection, schedule: Q01DX001 (ip), vehicle: saline 108 % of control | dose: 178.0 mg/kg/injection, schedule: Q01DX001 (ip), vehicle: saline 102 % of control | dose: 200.0 mg/kg/injection, schedule: Q01DX001 (ip), vehicle: saline 108 % of control | dose: 267.0 mg/kg/injection, schedule: Q01DX001 (ip), vehicle: saline 96 % of control | dose: 400.0 mg/kg/injection, schedule: Q01DX001 (ip), vehicle: saline 106 % of control | dose: 600.0 mg/kg/injection, schedule: Q01DX001 (ip), vehicle: saline 98 % of control

O=C(Nc1cccnc1)c1cccc([N+](=O)[O-])c1
inactive: dose: 25.0 mg/kg/injection, schedule: Q01DX009 (ip), vehicle: Klucel (hydroxypropylcellulose) (HPC) 108 % of control | dose: 25.0 mg/kg/injection, schedule: Q04DX002 (ip), vehicle: Klucel (hydroxypropylcellulose) (HPC) 97 % of control | dose: 50.0 mg/kg/injection, schedule: Q01DX009 (ip), vehicle: Klucel (hydroxypropylcellulose) (HPC) 110 % of control | dose: 50.0 mg/kg/injection, schedule: Q04DX002 (ip), vehicle: Klucel (hydroxypropylcellulose) (HPC) 102 % of control | dose: 100.0 mg/kg/injection, schedule: Q01DX009 (ip), vehicle: Klucel (hydroxypropylcellulose) (HPC) 93 % of control | dose: 100.0 mg/kg/injection, schedule: Q04DX002 (ip), vehicle: Klucel (hydroxypropylcellulose) (HPC) 97 % of control | dose: 200.0 mg/kg/injection, schedule: Q01DX009 (ip), vehicle: Klucel (hydroxypropylcellulose) (HPC) 92 % of control | dose: 200.0 mg/kg/injection, schedule: Q04DX002 (ip), vehicle: Klucel (hydroxypropylcellulose) (HPC) 96 % of control

CCCCCCC(C)c1cc(C)c(O)c(CN(C)C)c1 (stereo not drawn)
inactive: dose: 100.0 mg/kg/injection, schedule: Q04DX003 (ip), vehicle: saline 91 % of control | dose: 200.0 mg/kg/injection, schedule: Q04DX003 (ip), vehicle: saline 95 % of control

O=C1NC(=O)C2C3C=CC(C3)C12 (stereo not drawn)
inactive: dose: 12.5 mg/kg/injection, schedule: Q04DX002 (ip), vehicle: saline with Tween-80 93 % of control | dose: 25.0 mg/kg/injection, schedule: Q04DX002 (ip), vehicle: saline with Tween-80 93 % of control | dose: 50.0 mg/kg/injection, schedule: Q04DX002 (ip), vehicle: saline with Tween-80 97 % of control | dose: 100.0 mg/kg/injection, schedule: Q01DX009 (ip), vehicle: saline sonified 96 % of control | [1] 94 % of control | dose: 200.0 mg/kg/injection, schedule: Q01DX009 (ip), vehicle: saline sonified 96 % of control | [2] 101 % of control | dose: 400.0 mg/kg/injection, schedule: Q01DX009 (ip), vehicle: saline sonified 98 % of control | [3] 100 % of control

CC(C)OC(=O)Nc1ccc(Cl)cc1
inactive: [1] 97 % of control | [2] 97 % of control | [3] 100 % of control

CCOC(=O)c1ccc(NC(=S)NC(=O)c2ccc(Cl)cc2Cl)cc1
inactive: [1] 100 % of control | [2] 91 % of control | [3] 91 % of control

Clc1cccc(-c2cc(-c3ccccc3)[nH]n2)c1
inactive: dose: 100.0 mg/kg/injection, schedule: Q01DX001 (ip), vehicle: saline sonified 95 % of control | dose: 200.0 mg/kg/injection, schedule: Q01DX001 (ip), vehicle: saline sonified 97 % of control | dose: 400.0 mg/kg/injection, schedule: Q01DX001 (ip), vehicle: saline sonified 97 % of control

OCCNCc1ccc(Cl)cc1
inactive: [4] 96 % of control | [5] 98 % of control | [1] 103 % of control | dose: 200.0 mg/kg/injection, schedule: Q01DX009 (ip), vehicle: saline with Tween-80 93 % of control | [2] 96 % of control

O=C(O)C(=O)O.O=C(O)C(=O)O.O=C(O)C(=O)O.[Co]
inactive: dose: 50.0 mg/kg/injection, schedule: Q04DX002 (ip), vehicle: saline 93 % of control

O=C1NCC(C2CC2)(C2CC2)O1
inactive: [6] 108 % of control | [7] 100 % of control | [8] 100 % of control

COc1ncnc2c1c(C#N)cn2C1OC(CO)C(O)C1O (stereo not drawn)
inactive: dose: 6.25 mg/kg/injection, schedule: Q01DX009 (ip), vehicle: saline 117 % of control | dose: 25.0 mg/kg/injection, schedule: Q01DX009 (ip), vehicle: saline 109 % of control | dose: 50.0 mg/kg/injection, schedule: Q01DX009 (ip), vehicle: saline 124 % of control | dose: 100.0 mg/kg/injection, schedule: Q01DX009 (ip), vehicle: saline 91 % of control

CCCOC(=O)c1cc([N+](=O)[O-])cc([N+](=O)[O-])c1Sc1ncnc2nc[nH]c12
inactive: dose: 0.63 mg/kg/injection, schedule: Q01DX005 (ip), vehicle: other 102 % of control | dose: 1.25 mg/kg/injection, schedule: Q01DX005 (ip), vehicle: other 105 % of control | dose: 2.5 mg/kg/injection, schedule: Q01DX005 (ip), vehicle: other 102 % of control | dose: 5.0 mg/kg/injection, schedule: Q01DX005 (ip), vehicle: other 105 % of control | dose: 10.0 mg/kg/injection, schedule: Q01DX005 (ip), vehicle: other 105 % of control | dose: 20.0 mg/kg/injection, schedule: Q01DX005 (ip), vehicle: other 106 % of control | dose: 40.0 mg/kg/injection, schedule: Q01DX005 (ip), vehicle: other 113 % of control

CC(=O)[C@@]12O[C@@H]1C[C@H]1[C@@H]3CCC4=CC(=O)CC[C@]4(C)[C@H]3CC[C@@]12C
inactive: [6] 96 % of control | [7] 101 % of control | [8] 96 % of control

O.O.[NH-]C1CCCCC1[NH-].[Pt+2] (stereo not drawn)
inactive: dose: 0.31 mg/kg/injection, schedule: Q01DX009 (ip), vehicle: dextrose 109 % of control | dose: 0.63 mg/kg/injection, schedule: Q04DX003 (ip), vehicle: water 124 % of control | dose: 1.25 mg/kg/injection, schedule: Q01DX009 (ip), vehicle: dextrose 124 % of control

Cc1ccc(S(=O)(=O)OC(C#N)c2ccccc2)cc1 (stereo not drawn)
inactive: [4] 100 % of control | dose: 50.0 mg/kg/injection, schedule: Q04DX003 (ip), vehicle: saline with Tween-80 102 % of control | dose: 100.0 mg/kg/injection, schedule: Q01DX001 (ip), vehicle: saline with Tween-80 98 % of control | [5] 101 % of control | [1] 101 % of control | dose: 200.0 mg/kg/injection, schedule: Q01DX001 (ip), vehicle: saline with Tween-80 105 % of control | [2] 107 % of control

Cc1ccc(S(=O)(=O)NC(CSCc2ccccc2)C(=O)O)cc1 (stereo not drawn)
inactive: [1] 94 % of control | [2] 93 % of control | [3] 95 % of control

CN1CCCN(C)C1
inactive: dose: 75.0 mg/kg/injection, schedule: Q01DX001 (ip), vehicle: saline 97 % of control | dose: 150.0 mg/kg/injection, schedule: Q01DX001 (ip), vehicle: saline 97 % of control | dose: 300.0 mg/kg/injection, schedule: Q01DX001 (ip), vehicle: saline 102 % of control

CC(=O)N(C)N=Nc1ccc(F)cc1
inactive: dose: 25.0 mg/kg/injection, schedule: Q04DX003 (ip), vehicle: Klucel (hydroxypropylcellulose) (HPC) 105 % of control | dose: 50.0 mg/kg/injection, schedule: Q04DX003 (ip), vehicle: Klucel (hydroxypropylcellulose) (HPC) 102 % of control | dose: 100.0 mg/kg/injection, schedule: Q04DX003 (ip), vehicle: Klucel (hydroxypropylcellulose) (HPC) 105 % of control | dose: 200.0 mg/kg/injection, schedule: Q04DX003 (ip), vehicle: Klucel (hydroxypropylcellulose) (HPC) 105 % of control

Cc1ccccc1-c1nc2c([nH]1)c(=O)n(C)c(=O)n2C
inactive: dose: 12.5 mg/kg/injection, schedule: Q01DX005 (ip), vehicle: distilled water + Tween-80 87 % of control | dose: 25.0 mg/kg/injection, schedule: Q01DX005 (ip), vehicle: distilled water + Tween-80 92 % of control and 94 % of control | dose: 50.0 mg/kg/injection, schedule: Q01DX005 (ip), vehicle: distilled water + Tween-80 93 % of control and 95 % of control | dose: 100.0 mg/kg/injection, schedule: Q01DX005 (ip), vehicle: distilled water + Tween-80 88 % of control | dose: 200.0 mg/kg/injection, schedule: Q01DX005 (ip), vehicle: distilled water + Tween-80 88 % of control and 93 % of control | dose: 400.0 mg/kg/injection, schedule: Q01DX005 (ip), vehicle: distilled water + Tween-80 90 % of control

N=C(N)c1ccc(/C=C/c2ccc(C(=N)N)cc2O)cc1
inactive: dose: 3.12 mg/kg/injection, schedule: Q01DX009 (ip), vehicle: water 91 % of control | dose: 6.25 mg/kg/injection, schedule: Q01DX009 (ip), vehicle: water 97 % of control | dose: 12.5 mg/kg/injection, schedule: Q01DX009 (ip), vehicle: water 103 % of control | dose: 25.0 mg/kg/injection, schedule: Q01DX009 (ip), vehicle: water 105 % of control | dose: 50.0 mg/kg/injection, schedule: Q01DX009 (ip), vehicle: water 111 % of control
